The results in this text go back to patent US10377783B2, “Methods and compounds for enhancing contrast in magnetic resonance imaging (MRI)” (priority 2015, dated 2019).

SMILES strings stand for the structures. Like-named read-outs stand apart in the source and are kept apart here.

The test system of data set [1] is primary rat renal proximal tubule epithelial cells (RPTECs). Description: In vitro toxicity, MTT assay. The following applies: for cytotoxicity: 10 h time point, compared with 4 h; for IC50: rat RPTECs, MTT, read-out: Inhibitory concentration IC50. The format is cell-based. Here is the method: Gadodiamide (Selleckchem, Lot #02) was used as the reference compound. It is one of the 8 Gd(III)-based MRI agents approved for use in Canada (trade name: Omniscan™).
The test articles and reference compound were weighed and dissolved in the incubation medium to give the highest test concentration of 30 mM. The solution was filter sterilized and diluted to the remaining test concentrations of 10 mM, 3.3 mM, 1.1 mM, 0.36 mM, 0.12 mM and 0.04 mM.
Cryopreserved primary rat renal proximal tubule epithelial cells (RPTECs) (ScienCell Research Laboratories, Carlsbad, Calif.) were used for the study. The rat RPTECs were thawed completely at 37° C., and transferred to epithelial cell medium (ScienCell Research Laboratories, Carlsbad, Calif.) followed by plating in poly-L-lysine coated 96-well plates. The RPTECs were allowed to recover and grow in a cell culture incubator (37° C., humidified atmosphere of 5% carbon dioxide and 95% air) for 3 additional days with a medium change every alternate day.
Following 3 days of plating, the RPTECs were washed once with serum free epithelial cell medium (ScienCell Research Laboratories, Carlsbad, Calif.) followed by treatment with the test, reference or control articles for 2, 4, 10 or 24 h. All treatments were performed in triplicate.
Cellular viability and metabolic activity were assessed by using the 3-(4,5-dimethylthiazol-2-yl)-2,5-diphenyl tetrazolium bromide (MTT) uptake assay. A 10× stock of the MTT dye was prepared in phosphate buffered saline (PBS). An aliquot of dye was added 2 hrs before the intended time point to achieve a final 1× concentration, after which incubation (37° C., humidified atmosphere of 5% carbon dioxide and 95% air) continued until the desired time point. For the 2 hr time point, the aliquot of dye was added immediately after the test articles. Following incubation, all media was aspirated from the wells and the plates were allowed to dry. The resulting formazan crystals were dissolved in DMSO using an orbital shaker, and the absorbance at 570 nm was measured using a Victor ^3V multilabel plate reader (reference wavelength=650 nm).
The inhibitory concentration (IC50, the concentration resulting in 50% toxicity) was determined by plotting log concentration vs. relative viability, followed by non-linear regression of the curve using Graph Pad Prism 5.0.
An in vitro toxicity study was performed in order to evaluate the cytotoxic potential of several of the agents in primary rat renal proximal tubule epithelial cells (RPTECs), prior to performing in vivo studies. The Mn^II and Gd^III complexes of L1, L2 and L6 (complexes 1, 2, 5, and 7-9) were evaluated at seven concentrations (30 mM, 10 mM, 3.3 mM, 1.1 mM, 0.36 mM, 0.12 mM and 0.04 mM) after 2, 4, 10 and 24 hours of treatment in rat RPTECs. The MTT assay was used as an indicator of viability. The nephrotoxic potential of the test articles was compared to the toxicity observed in the presence of the approved agent Gadodiamide. The results are summarized in Table 4, where the inhibitory concentration (IC50, the concentration resulting in 50% toxicity) was determined by plotting log concentration vs. relative viability.
In general terms: Formazan colour is commonly taken as a measure of viable cells.

The nature of data set [2]: Relaxivity measurements (T1 and T2 relaxation times, Bruker minispec mq60/mq20). The data set is classed as physicochemical. The following applies: aqueous solution, 37° C. Here is the method:
T1 and T2 relaxation times were measured at the STTARR Innovation Centre in Toronto, Canada using a Bruker minispec mq60, and at the Bruker Showroom in Milton, Canada using a Bruker minispec mq20. Measurements were carried out on a series of 6 aqueous dilutions between 0-5 mM.
The T1 and T2 relaxation times of the 8 soluble, pure complexes were measured in aqueous solution at 37° C., at both 20 and 60 MHz.

The subject of another data set is male Sprague-Dawley rats. Description: In vivo acute toxicity. Set-up: species or system rat. On the procedure:
Compound 1 (aq., 12.5 mM) was injected intravenously into 4 male rats (Sprague Dawley Crl:SD, 315-340 g) at a dosage of 0.02 mmol/kg following anaesthesia with 5% isoflurane. […] Body weight measurements and hematology were performed on days −1, 7 and 14. Compound 6 (aq., 6.25 mM) was injected intravenously into 8 male rats (Sprague Dawley Crl:SD, 327-365 g) at a dosage of 0.01 mmol/kg following anaesthesia with 5% isoflurane. […] Body weight measurements and hematology were performed on days −1, 1 and 8. Following euthanasia, the heart, lungs, liver, kidneys, spleen, thyroid and pituitary glands were grossly examined during necropsy, and samples of the brain, heart (compound 1 only), lungs, liver, kidneys, spleen and thymus (compound 1 only) were microscopically evaluated during histopathological examination.
The acute toxicities of 1 and 6 were studied in 8 week old male Sprague-Dawley rats. The toxicity of 1 was studied over a period of 14 days, in four rats; while the toxicity of 6 was studied over a period of 8 days, in 8 rats. Compound 1 was injected intravenously at a dosage of 0.02 mmol/kg (c=12.5 mM), while 6 was injected at a dosage of 0.01 mmol/kg (c=6.25 mM). These dosages were chosen because the dosage for the only Mn^II-based compound approved in North America, Teslascan, was 0.005 mmol/kg; and the inventors were anticipating a […] degree of toxicity.

`CC1=NCCNCCNCCN=C(C)c2cccc1n2.O.O.[Cl-].[Cl-].[Mn+2]` [Compound 1, [MnL1Cl2].2H2O]: in data set [1] (2 and 4 h of treatment, 0.04-30 mM), the “nephrotoxicity” value was “did not show significant nephrotoxicity”. Also, the “cytotoxicity” value in data set [1] is on record as “did not display significant cytotoxicity”. Moreover, the “nephrotoxic effects” value in data set [1] (24 h of treatment) is on record as “exhibiting the least nephrotoxic effects”. Besides, the IC50 in data set [1] (24 hr treatment) came out at 5.47 mM. Moreover, the results for the r1 relaxivity in data set [2] (20 MHz) and in data set [2] (60 MHz) were 3.78 s⁻¹ mM⁻¹ and 2.76 s⁻¹ mM⁻¹, respectively. For the same compound, the “acute toxicity (overall)” value in the data set with male Sprague-Dawley rats (0.02 mmol/kg iv, 4 rats, 14 days) is “minimally- to non-acutely toxic”. In addition, in the data set with male Sprague-Dawley rats (at the studied dosages), the “toxicity (summary of the in vivo studies)” value is recorded as “negligible toxicity”.
Regarding `CC1=NCCOCCOCCN=C(C)c2cccc1n2.O.O.[Cl-].[Cl-].[Mn+2]` [Compound 2, [MnL2Cl2].2H2O], the IC50 in data set [1] (2 hr treatment) came out at 3.88 mM; in data set [1] (4 hr treatment), 2.56 mM; in data set [1] (10 hr treatment), 14.7 mM; in data set [1] (24 hr treatment), 0.68 mM. For the same compound, in data set [1], the “cytotoxicity” value is listed as “exhibited a slight reduction in toxicity”. For the same compound, the r1 relaxivity amounted to 3.58 s⁻¹ mM⁻¹ in data set [2] (20 MHz) and 2.78 s⁻¹ mM⁻¹ in data set [2] (60 MHz).
